# Results taken from patent US20240150342A1, “ESTROGEN-RELATED RECEPTOR ALPHA MODULATORS” (LEAD PHARMA HOLDING B.V., priority 2019, published 2024).
# Biological target: T1, ERRα ligand binding domain (ERRα-LBD) (Homo sapiens, UniProt P11474)
# T1 construct: made in house; host or cells: E. coli
# T1 sequence (P11474 193-421 limits assumed): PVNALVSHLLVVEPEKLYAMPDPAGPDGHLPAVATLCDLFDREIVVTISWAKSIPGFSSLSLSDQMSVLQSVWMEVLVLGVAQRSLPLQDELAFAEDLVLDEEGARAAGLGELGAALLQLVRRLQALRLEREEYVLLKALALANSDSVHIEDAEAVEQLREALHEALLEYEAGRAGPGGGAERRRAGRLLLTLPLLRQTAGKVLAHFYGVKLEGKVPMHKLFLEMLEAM
# Assay: ERRα AlphaScreen Assay
# Type: biochemical
# Details: disruption of binding of ERRα-LBD protein to biotin-PGC1α-3 co-activator peptide; read-out: mean pIC50 (converted)
# From the text: This assay was based on the knowledge that nuclear receptors interact with cofactors in a ligand dependent matter. The sites of interaction have been mapped to LXXLL motifs that are present in the co-activator sequences. Short peptide sequences that contain the LXXLL motif mimic the behavior of full length co-activators.
# The ERRα AlphaScreen Assay described here relies on the interaction of the co-activator peptide with purified bacterial- expressed ERRα ligand binding domain (ERRα-LBD); upon ligand binding, the ERRα protein can undergo a conformational change resulting in a loss of co-activator binding.
# Compounds of the present invention were tested for their ability to disrupt binding of ERRα-LBD protein to co-activator peptide using AlphaScreen® Technology (Perkin Elmer). ERRα-LBD protein was expressed in E. coli as a 6×His Small Ubiquitin-like Modifier (SUMO) fusion. Bacterial expressed 6His-SUMO-ERRα-LBD protein was purified using affinity chromatography. All experiments were performed at room temperature in 384-well white non-binding plates (Greiner) using 50 mM Tris-HCl pH 7.5, 100 mM NaCl, 0.1% Pluronic F-127, 0.05% BSA and 5 mM TCEP as the buffer. Final DMSO concentration was 1% in the assay. Compounds were assayed in triplicate and: incubated with 0.81 nM ERRα-LBD protein and 10 μg/mL streptavidin donor beads and 10 μg/mL Ni-chelate acceptor beads for 1 hour at room temperature; followed by a 2-hour incubation with 15 nM biotin-PGC1α-3 peptide (QRRPCSELLKYLTTNDDPP) corresponding to amino acids 202 to 220.
# The AlphaScreen signal was measured using an Envision Xcite plate reader (Perkin Elmer). Data was normalized, and curve fitting analysis was performed in GraphPad Prism 7 using a four-parameter dose-response fit.
row,SMILES,IC50
1,"COc1cc(C2CC(=O)Nc3n[nH]cc32)ccc1Oc1cccc2c1OC(C)(C)C2 (centres unmarked) [Example 48, 4-{4-[(2,2-dimethyl-2,3-dihydro-1-benzofuran-7-yl)oxy]-3-methoxyphenyl}-2H,4H,5H,6H,7H-pyrazolo[3,4-b]pyridin-6-one]",10 to 100 nM
2,"COc1cc(C2CC(=O)Nc3n[nH]cc32)ccc1Oc1ccc2c(c1)CCC2 (centres unmarked) [Example 49, 4-[4-(2,3-dihydro-1H-inden-5-yloxy)-3-methoxyphenyl]-2H, 4H, 5H, 6H,7H-pyrazolo[3,4-b]pyridin-6-one]",100 to 1000 nM
3,"COc1cc(Oc2ccc(C3CC(=O)Nc4n[nH]cc43)cc2Br)cc(C(F)(F)F)c1 (centres unmarked) [Example 52, 4-{3-bromo-4-[3-methoxy-5-(trifluoromethyl)phenoxy]phenyl}-2H,4H,5H,6H,7H-pyrazolo[3,4-b]pyridin-6-one]",10 to 100 nM
4,"CC(C)(C)c1cc(C#N)ccc1Oc1ccc(C2CC(=O)Nc3n[nH]cc32)cc1 (centres unmarked) [Example 53, 3-tert-butyl-4-(4-{6-oxo-2H,4H,5H,6H,7H-pyrazolo[3,4-b]pyridin-4-yl}phenoxy)benzonitrile]",10 to 100 nM
5,"COc1cc(Oc2ccc(C3CC(=O)Nc4n[nH]cc43)cc2)cc(C(F)(F)F)c1 (centres unmarked) [Example 54, 4-{4-[3-methoxy-5-(trifluoromethyl)phenoxy]phenyl}-2H,4H,5H,6H,7H-pyrazolo[3,4-b]pyridin-6-one]",10 to 100 nM
6,"Cc1cc(C2CC(=O)Nc3n[nH]cc32)ccc1Oc1ccc(C#N)cc1C(C)(C)C (centres unmarked) [Example 55, 3-tert-butyl-4-(2-methyl-4-{6-oxo-2H,4H,5H,6H,7H-pyrazolo[3,4-b]pyridin-4-yl}phenoxy)benzonitrile]",10 to 100 nM
7,"COc1cc(Oc2ccc(C3CC(=O)Nc4n[nH]cc43)cc2C)cc(C(F)(F)F)c1 (centres unmarked) [Example 56, 4-{4-[3-methoxy-5-(trifluoromethyl)phenoxy]-3-methylphenyl}-2H,4H,5H,6H,7H-pyrazolo[3,4-b]pyridin-6-one]",10 to 100 nM
8,"COc1cc(Oc2ccc(C3CC(=O)Nc4n[nH]cc43)cc2F)cc(C(F)(F)F)c1 (centres unmarked) [Example 57, 4-{3-fluoro-4-[3-methoxy-5-(trifluoromethyl)phenoxy]phenyl}-2H,4H,5H,6H,7H-pyrazolo[3,4-b]pyridin-6-one]",10 to 100 nM
9,"O=C1CC(c2ccc(Oc3ccccc3S(F)(F)(F)(F)F)c(OC(F)(F)F)c2)c2c[nH]nc2N1 (centres unmarked) [Example 58, 4-{4-[2-(pentafluoro-λ^6-sulfanyl)phenoxy]-3-(trifluoromethoxy)phenyl}-2H,4H,5H,6H,7H-pyrazolo[3,4-b]pyridin-6-one]",10 to 100 nM
10,"O=C1CC(c2ccc(Oc3ccccc3S(F)(F)(F)(F)F)cc2)c2c[nH]nc2N1 (centres unmarked) [Example 59, 4-{4-[2-(pentafluoro-λ^6-sulfanyl)phenoxy]phenyl}-2H,4H,5H,6H,7H-pyrazolo[3,4-b]pyridin-6-one]",100 to 1000 nM
11,"O=C1CC(c2ccc(Oc3ccccc3C(F)(F)F)c(OC(F)(F)F)c2)c2c[nH]nc2N1 (centres unmarked) [Example 60, 4-[3-(trifluoromethoxy)-4-[2-(trifluoromethyl)phenoxy]phenyl]-2H,4H,5H,6H,7H-pyrazolo[3,4-b]pyridin-6-one]",100 to 1000 nM
12,"COc1cc(C2CC(=O)Nc3n[nH]cc32)ccc1Oc1ccc(C(=O)O)cc1C(C)(C)C (centres unmarked) [Example 61, 3-tert-butyl-4-(2-methoxy-4-{6-oxo-2H,4H,5H,6H,7H-pyrazolo[3,4-b]pyridin-4-yl}phenoxy)benzoic acid]",10 to 100 nM

# Continued, values first:
row,IC50,SMILES
1,10 to 100 nM,"COc1cc(C2CC(=O)Nc3n[nH]cc32)ccc1Oc1cc(C)cc(C)c1 (centres unmarked) [Example 64, 4-[4-(3,5-dimethylphenoxy)-3-methoxyphenyl]-2H,4H,5H,6H,7H-pyrazolo[3,4-b]pyridin-6-one]"
2,100 to 1000 nM,"COc1cc(C2CC(=O)Nc3n[nH]cc32)ccc1Oc1ccc(C(F)(F)F)cc1C (centres unmarked) [Example 65, 4-{3-methoxy-4-[2-methyl-4-(trifluoromethyl)phenoxy]phenyl}-2H,4H,5H,6H,7H-pyrazolo[3,4-b]pyridin-6-one]"
3,100 to 1000 nM,"COc1cc(C2CC(=O)Nc3n[nH]cc32)ccc1Oc1ccc(C)cc1C (centres unmarked) [Example 66, 4-[4-(2,4-dimethylphenoxy)-3-methoxyphenyl]-2H,4H,5H,6H,7H-pyrazolo[3,4-b]pyridin-6-one]"
4,100 to 1000 nM,"COc1cc(-c2cc(=O)[nH]c3n[nH]cc23)ccc1Oc1ccc(C#N)cc1C(F)(F)F [Example 71, 4-(2-methoxy-4-{6-oxo-2H,6H,7H-pyrazolo[3,4-b]pyridin-4-yl}phenoxy)-3-(trifluoromethyl)benzonitrile]"
5,100 to 1000 nM,"COC(=O)C1C(=O)Nc2n[nH]cc2C1c1ccc(Oc2cc(C(F)(F)F)cc(C(F)(F)F)c2)c(OC)c1 (centres unmarked) [Example 72, methyl 4-{4-[3,5-bis(trifluoromethyl)phenoxy]-3-methoxyphenyl}-6-oxo-2H,4H,5H,6H,7H-pyrazolo[3,4-b]pyridine-5-carboxylate]"
6,10 to 100 nM,"COc1cc(C2CC(=O)Nc3c[nH]cc32)ccc1Oc1cc(C(F)(F)F)cc(C(F)(F)F)c1 (centres unmarked) [Example 76, 4-{4-[3,5-bis(trifluoromethyl)phenoxy]-3-methoxyphenyl},2H,3H,4H,6H-pyrrolo[3,4-b]pyridin-2-one]"
7,10 to 100 nM,"COc1cc(C2CC(=O)Nc3n[nH]cc32)ccc1Oc1cc(C(F)F)cc(C(F)(F)F)c1 (centres unmarked) [Example 77, 4-{4-[3-(difluoromethyl)-5-(trifluoromethyl)phenoxy]-3-methoxyphenyl}-2H,4H,5H,6H,7H-pyrazolo[3,4-b]pyridin-6-one]"
8,10 to 100 nM,"COc1cc(C2CC(=O)Nc3n[nH]cc32)ccc1Oc1ccc(C(F)(F)F)cc1C(F)F (centres unmarked) [Example 78, 4-{4-[2-(difluoromethyl)-4-(trifluoromethyl)phenoxy]-3-methoxyphenyl}-2H,4H,5H,6H,7H-pyrazolo[3,4-b]pyridin-6-one]"
